Data published in PubChem BioAssay (NCI).
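The compound was tested at five concentrations on cells cultured in 96-well plates, with a 48-hour exposure period. GI50 = concentration required for 50% inhibition of growth. TGI is the concentration that stops growth completely.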

What was measured:
Assay in all cases: NCI tumour cell line growth inhibition, 48 h
SN12C renal = system: SN12C renal
HT29 colon = system: HT29 colon
SNB-75 CNS = system: SNB-75 CNS
SNB-19 CNS = system: SNB-19 CNS
HS 578T breast = system: HS 578T breast
ACHN renal = system: ACHN renal
HL-60(TB) leukemia = system: HL-60(TB) leukemia
SW-620 colon = system: SW-620 colon
RPMI-8226 leukemia = system: RPMI-8226 leukemia
RXF 393 renal = system: RXF 393 renal

SMILES | TGI (SN12C renal) [µM] | TGI (HT29 colon) [µM] | TGI (SNB-75 CNS) [µM] | TGI (SNB-19 CNS) [µM] | TGI (HS 578T breast) [µM] | TGI (ACHN renal) [µM] | TGI (HL-60(TB) leukemia) [µM] | TGI (SW-620 colon) [µM] | TGI (RPMI-8226 leukemia) [µM] | TGI (RXF 393 renal) [µM] | GI50 (SN12C renal) [µM] | GI50 (HT29 colon) [µM] | GI50 (SNB-19 CNS) [µM] | GI50 (HS 578T breast) [µM] | GI50 (HL-60(TB) leukemia) [µM] | GI50 (RPMI-8226 leukemia) [µM]
O=C(/C=C/c1ccccc1O)/C=C/c1ccccc1O | 3.65 | 4.85 | 19.5 | 4.86 | 12.3 | 3.35 | 7.62 | 4.36 | 0.76 | – | – | – | – | – | – | –
CCCCCCOc1ccc(NC2=C(Cl)C(=O)c3ncccc3C2=O)cc1 | 3.12 | > 10 | 3.93 | 4.51 | 9 | > 10 | – | 5.38 | – | 3.7 | – | – | – | – | – | –
CCC(C)C1(O)OC2CC3(C)OC(=CC3=O)/C(C)=C\C3OC(=O)C1(C)C32 (centres undefined) | 28.6 | 34.3 | > 100 | 77.5 | > 100 | 23.5 | 63.8 | – | > 100 | – | – | – | – | – | – | –
N#Cc1c(N2CCN(c3ccc([N+](=O)[O-])cc3)CC2)[n+](=O)c2ccc(Cl)cc2n1[O-] | 3.05 | 7.31 | > 27.9 | > 32.8 | > 100 | 2.24 | – | 1.81 | – | > 22.7 | – | – | – | – | – | –
NC(=O)CS(=O)CC(N)C(=O)O (centres undefined) | > 100 | > 100 | > 100 | > 100 | > 100 | > 100 | – | > 100 | – | > 100 | – | – | – | – | – | –
O=C(O)c1ccc(Nc2nc3ccccc3nc2C(=O)O)cc1 | > 100 | > 100 | > 100 | > 100 | > 100 | > 100 | – | – | > 100 | – | – | – | – | – | – | –
COc1ccc(C2c3cc4c(cc3OC(N3CCCCC3)C2C)OCO4)cc1 (centres undefined) | > 100 | > 100 | > 100 | > 100 | 87.8 | > 100 | – | > 100 | > 100 | – | – | – | – | – | – | –
CC(=O)Nc1ccc(-c2nnc(SCC(=O)Nc3ccccc3C)o2)cc1 | > 100 | > 100 | > 100 | – | – | > 100 | > 100 | > 100 | > 100 | > 100 | – | – | – | – | – | –
O=C(C#Cc1cn(C2CC(O)C(CO)O2)c(=O)[nH]c1=O)c1ccccc1 (centres undefined) | > 100 | > 100 | > 100 | > 100 | > 100 | > 100 | – | 50.4 | > 100 | 52.7 | – | – | – | – | – | –
COc1ccc2c(c1)CC[C@@H]1[C@@H]2CC[C@]2(C)C(=O)/C(=C/c3cc(OC)c(OC)c(OC)c3)C[C@@H]12 | – | – | 38.9 | > 100 | – | 40.7 | > 100 | > 100 | > 100 | 86.8 | – | – | – | – | – | –
CN1CC2CC(C1)c1cccc(=O)n1C2 (centres undefined) | > 100 | > 100 | > 100 | > 100 | > 100 | > 100 | – | – | – | > 100 | – | – | – | – | – | –
COc1nc2[nH]ccc2c(=O)n1C | > 100 | > 100 | > 100 | > 100 | – | > 100 | > 100 | > 100 | > 100 | > 100 | – | – | – | – | – | –
CCOC(=O)N(C)C1(c2ccccc2)CCN(CCCC(=O)c2ccc(F)cc2)CC1 | > 100 | 38.1 | – | 0.835 | > 100 | > 100 | 79.1 | 9.3 | 63.8 | > 100 | – | – | – | – | – | –
O=C(NN1C(=O)C=CC1=O)c1ccccc1Nc1ccccc1C(=O)NN1C(=O)C=CC1=O | > 100 | > 100 | > 100 | > 100 | – | > 100 | > 100 | > 100 | > 100 | > 100 | – | – | – | – | – | –
COc1cc(-c2nc3nc(N4CCN(C)CC4)ccc3[nH]2)c(OC)c2[nH]c(COC(C)=O)nc12 | 98.8 | 61.8 | > 100 | > 100 | > 100 | > 100 | – | > 100 | – | 86.7 | – | – | – | – | – | –
O=C1C[C@H](c2ccccc2)C2(C(=O)c3ccccc3C2=O)[C@H](c2ccccc2)C1 | > 100 | > 100 | > 100 | > 100 | > 100 | – | > 100 | – | > 100 | 50.5 | – | – | – | – | – | –
O=C1/C(=C/c2ccco2)NC(=S)N1CN1CCOCC1 | > 100 | > 100 | > 100 | > 100 | > 100 | > 100 | – | > 100 | > 100 | – | – | – | – | – | – | –
COc1ccc2c(c1)-c1oc3ccccc3c(=O)c1CO2 | 77.9 | > 100 | 73 | – | – | > 100 | – | > 100 | > 100 | – | – | – | – | – | – | –
COc1cc(C2S/C(=C/c3ccccc3)C(=O)N2c2cccc([N+](=O)[O-])c2)cc(OC)c1OC (centres undefined) | > 100 | > 100 | – | > 100 | > 100 | > 100 | – | – | – | – | – | – | – | – | – | –
Clc1ncnc2c1ncn2CCCCCCCCCCCCn1cnc2c(Cl)ncnc21 | 37.5 | 21.5 | – | 27.8 | – | 27.9 | 19.1 | 60.8 | 25.4 | 32.2 | – | – | – | – | – | –
CC(C)CCC[C@@H](C)[C@H]1CCC2C3=CCC4C(=O)C=CC(=O)C4C3CC[C@@]21C (some centres undefined) | > 100 | > 100 | – | > 100 | > 20.9 | – | > 100 | – | – | – | 0.256 | 0.839 | 0.543 | 0.528 | 0.27 | 0.11
Cc1cc([N+](=O)[O-])ccc1N=NC(=O)NNc1ccc([N+](=O)[O-])cc1C | 63.8 | 45.6 | 34.7 | 37.8 | – | 29.4 | 40.9 | 33.7 | 55.2 | – | – | – | – | – | – | –
CC(C)(NC1=NCCO1)c1ccccc1 | > 100 | > 100 | > 100 | > 100 | > 100 | > 100 | – | > 100 | > 100 | > 100 | – | – | – | – | – | –
CC1CCC2(CC1)N=C1CCC(C)CC1C1(CCC(C)CC1)N2 (centres undefined) | – | > 100 | > 100 | > 100 | > 100 | > 100 | > 100 | > 100 | > 100 | > 100 | – | – | – | – | – | –
